Type in all cases: functional, organism-based
Assay [1] concerns Human adenovirus D37. The experiment in a line: Inhibition of 35S-labeled Human adenovirus 37 1477 virion binding to human HCE cells at 1:9 compound to PDA ratio formulation prepared by probe sonication method after 1 hr by scintillation counting. The note with it: Human mastadenovirus D, 1477, HCE.
Assay [2] deals with Human adenovirus D37. The experiment in a line: Inhibition of 35S-labeled Human adenovirus 37 1477 virion binding to human HCE cells at 0.1:9.9 compound to PDA ratio formulation prepared by probe sonication method after 1 hr by scintillation counting. The note with it: Human mastadenovirus D, 1477, HCE.
In assay [3] the test system is Human adenovirus D37. The experiment in a line: Inhibition of 35S-labeled Human adenovirus 37 1477 virion binding to human HCE cells at 0.5:9.5 compound to PDA ratio formulation prepared by probe sonication method after 1 hr by scintillation counting. The note with it: Human mastadenovirus D, 1477, HCE.
Assay [4] concerns Human adenovirus D37. The experiment in a line: Inhibition of 35S-labeled Human adenovirus 37 1477 virion binding to human HCE cells at 2:8 compound to PDA ratio formulation prepared by extrusion method after 1 hr by scintillation counting. The note with it: Human mastadenovirus D, 1477, HCE.
Assay [5] relates to Human adenovirus D37. The experiment in a line: Inhibition of 35S-labeled Human adenovirus 37 1477 virion binding to human HCE cells at 1:9 compound to PDA ratio formulation prepared by extrusion method after 1 hr by scintillation counting. The note with it: Human mastadenovirus D, 1477, HCE.
In assay [6] the test system is Human adenovirus D37. Description: Antiviral activity against Human adenovirus 37 1477 in human HCE cells assessed as inhibition of viral infection to host cells after 44 hrs by immunofluorescence microscopic analysis. The following applies: Human mastadenovirus D, 1477, HCE.
In assay [7] the test system is Human adenovirus D37. Description: Induction of 35S-labeled Human adenovirus 37 1477 aggregation by liquid scintillation counting.
Assay [8] concerns Human adenovirus D37. The experiment in a line: Induction of Human adenovirus 37 1477 aggregation by negative staining transmission electron microscopy.

Molecules are shown by their SMILES. pIC50: −log10 of the molar value. The source made the active and inactive calls. The rule behind the calls is not given here. Where only a bound is given, the exact number is not on record here.

Broadly, the pIC50 is the negative decadic logarithm of the IC50, by convention in mol/L.

As for `CCCCCCCCCCCCC#CC#CCCCCCCCCC(=O)NCCOCCOCCOCCOCCOCCC(=O)NCCCCCO[C@]1(C(=O)O)C[C@H](O)[C@@H](NC(C)=O)[C@H]([C@H](O)[C@H](O)CO)O1`, the pIC50 is 6.05 in the assay on Human adenovirus D37 [1]; below 5.30 in the assay with Human adenovirus D37 [2]; above 4.60 in the assay on Human adenovirus D37 [3]; 4.59 in the assay with Human adenovirus D37 [4]; 5.40 in the assay with Human adenovirus D37 [5]; 6.15 in the assay with Human adenovirus D37 [6]. Besides, the outcome in the assay on Human adenovirus D37 [7] and in the assay on Human adenovirus D37 [8] was Active.

In the case of `CCCCCCCCCCCCCCCCCCCCCCCC(=O)NCCOCCOCCOCCOCCOCCC(=O)NCCCCCO[C@]1(C(=O)O)C[C@H](O)[C@@H](NC(C)=O)[C@H]([C@H](O)[C@H](O)CO)O1`, in the assay on Human adenovirus D37 [5], the pIC50 is 4.68.

On to `CCCCCCCCCCCCC#CC#CCCCCCCCCC(=O)NCCOCCOCCOCCOCCOCCOCCOCCOCCOCCOCCOCCOCCC(=O)NCCCCCO[C@]1(C(=O)O)C[C@H](O)[C@@H](NC(C)=O)[C@H]([C@H](O)[C@H](O)CO)O1`, for which the negative-log IC50 (pIC50) in the assay with Human adenovirus D37 [5] was 5.15.

On to `CCCCCCCCCCCCCCCCCC(=O)NCCOCCOCCOCCOCCOCCC(=O)NCCCCCO[C@]1(C(=O)O)C[C@H](O)[C@@H](NC(C)=O)[C@H]([C@H](O)[C@H](O)CO)O1`, for which the pIC50 in the assay on Human adenovirus D37 [5] is below 4.30.

On to `CCCCCCCCCCCCC#CC#CCCCCCCCCC(=O)NCCOCCOCCOCCC(=O)NCCCCCO[C@]1(C(=O)O)C[C@H](O)[C@@H](NC(C)=O)[C@H]([C@H](O)[C@H](O)CO)O1`, for which the pIC50 with Human adenovirus D37 [5] was below 4.30.

Values taken from ChEMBL document CHEMBL1914321, “Molecular wipes: application to epidemic keratoconjuctivitis” (J Med Chem, 2011).
